In the oligonucleotide strings, read from the 5' end, every base follows the letter of its sugar. An asterisk marks phosphorothioate; unmarked linkages are phosphodiester. Other units and linkages are bracketed, terminal groups are in braces. A string of capitals states the bases alone. e = 2'-O-(2-methoxyethyl) (MOE); [5mC] = 5-methylcytosine; d = 2'-deoxy (DNA)
Legend:
Type in all cases: cell-based, human
mir-15a pri-miRNA = mir-15a pri-miRNA expression in HepG2 cells (real-time RT-PCR); settings: HepG2 cells, 100 nM, real-time RT-PCR
Experimental: Using the real-time RT-PCR methods described in Example 19, the expression levels of the mir-15a pri-miRNA were compared in HepG2 cells treated with a nested series of chimeric gapmer oligomeric compounds, targeting and spanning the entire length of the mir-15a pri-miRNA; these compounds are shown in Table 45, below. […] All cytidine residues are 5-methylcytidines. Using the transfection methods described herein, HepG2 cells were treated with 100 nM of each of these gapmer oligomeric compounds. Total RNA was isolated from HepG2 cells by lysing cells in 1 mL TRIZOL™ (Invitrogen) using the manufacturer's recommended protocols. Real-time RT-PCR analysis was performed using a primer/probe set specific for the mir-15a pri-miRNA molecule to assess the effects of these compounds on expression of the mir-15a pri-miRNA molecule. ISIS 339317 ([…]; SEQ ID NO.: 885) was used as the forward primer, ISIS 339318 (TGGCCTGCACCTTTTCAAA; SEQ ID NO.: 886) was used as the reverse primer, and ISIS 339319 ([…]; SEQ ID NO.: 887) was used as the probe. Total RNA was quantified using RiboGreen™ RNA quantification reagent (Molecular Probes, Inc. Eugene, Oreg.), expression levels observed for each target are normalized to 5.8S rRNA, and values are expressed relative to the untreated control. Inhibition of expression of the mir15a pri-miRNA by these gapmer oligomeric compounds is expressed as a percentage of RNA levels in untreated control cells.

HeLa cells = assay: Cell cycle assay in HeLa cells; settings: HeLa, 150 nM, 48 hours
T47Dp53 cells = assay: Cell cycle assay in T47Dp53 cells; settings: 150 nM, 48 hours
Experimental: (§1) In further studies, additional cell lines were treated with oligomeric compounds targeted against miRNAs to assess the effects of each oligomeric compound on cell cycling. BJ, B16, T47D, and HeLa cells were cultured and transfected as described above. […] T47Dp53 cells are T47D cells that have been transfected with and selected for maintenance of a plasmid that expresses a wildtype copy of the p53 gene (for example, pCMV-p53; Clontech, Palo Alto, Calif.), using standard laboratory procedures. BJ cells were treated with 200 nM of each oligomeric compound, and T47D, T47Dp53, HeLa, and B16 cells were treated with 150 nM of each oligomeric compound. The human foreskin fibroblast BJ cell line represents a non-cancer cell line, while HeLa, T47D, T47Dp53 cells and the mouse melanoma cell line B16-F10 represent cancerous cell lines. For comparison, oligomeric compounds ISIS 183891 (SEQ ID NO: 847) and ISIS 285717 ([…]; herein incorporated as SEQ ID NO: 857), both targeting the kinesin-like 1/Eg5 mRNA, involved in cell cycling, were used as positive controls. The random-mer ISIS 29848 was used as a negative control. Additionally, the oligomeric compounds ISIS Number 25690 ([…]; herein incorporated as SEQ ID NO: 858) and ISIS Number 25691 ([…]; herein incorporated as SEQ ID NO: 859), targeted to nucleotides 3051-3070 and 3085-3104, respectively, of the mRNA encoding the Drosha RNase III (GenBank Accession NM_013235.2, incorporated herein as SEQ ID NO: 860) were also tested. ISIS Number 25690 and ISIS Number 25691 are 5-10-52′-MOE gapmer compounds, 20 nucleotides in length, with phosphorothioate internucleoside linkages throughout the oligomeric compound. All cytidine residues are 5-methylcytidines. Transfections were performed using the methods described herein. Cells were prepared for flow cytometry 48-hours after oligonucleotide treatment. Results of these studies are shown in Table 35, where data are expressed as percentage of cells in each phase relative to the untreated control cells in that phase.

BJ cells = assay: Cell cycle assay in BJ cells; settings: 200 nM, 48 hours
Experimental: BJ cells were routinely cultured in MEM high glucose with 2 mM L-glutamine and Earle's BSS adjusted to contain 1.5 g/L sodium bicarbonate and supplemented with 10% fetal bovine serum, 0.1 mM non-essential amino acids and 1.0 mM sodium pyruvate (all media and supplements from Invitrogen Life Technologies, Carlsbad, Calif.). B16-F10 cells were routinely cultured in DMEM high glucose (Invitrogen Life Technologies, Carlsbad, Calif.) supplemented with 10% fetal bovine serum (Invitrogen Life Technologies, Carlsbad, Calif.). T47D cells were cultured in DMEM High glucose media (Invitrogen Life Technologies, Carlsbad, Calif.) supplemented with 10% fetal bovine serum. […] Cells were plated on collagen-coated 24-well plates (Falcon-Primaria #3047, BD Biosciences, Bedford, Mass.) at approximately 50,000 cells per well and allowed to attach to wells overnight.
as §1

Substance	Expression of mir-15a pri-miRNA (% UTC) (mir-15a pri-miRNA)	also measured
347968 (e[5mC]*e[5mC]*eT*eG*e[5mC]*dA*d[5mC]*d[5mC]*dT*dT*dT*dT*d[5mC]*dA*dA*eA*eA*eT*e[5mC]*e[5mC]; antisense) [compound 347968]	8.4	–
347969 (eT*eG*eG*e[5mC]*e[5mC]*dT*dG*d[5mC]*dA*d[5mC]*d[5mC]*dT*dT*dT*dT*e[5mC]*eA*eA*eA*eA; antisense) [compound 347969]	39.5	–
347970 (eA*eT*eA*eT*eG*dG*d[5mC]*d[5mC]*dT*dG*d[5mC]*dA*d[5mC]*d[5mC]*dT*eT*eT*eT*e[5mC]*eA; antisense) [compound 347970]	2.2	–
347971 (eA*e[5mC]*eA*eA*eT*dA*dT*dG*dG*d[5mC]*d[5mC]*dT*dG*d[5mC]*dA*e[5mC]*e[5mC]*eT*eT*eT; antisense) [compound 347971]	92.8	–
347972 (eA*eG*e[5mC]*eA*e[5mC]*dA*dA*dT*dA*dT*dG*dG*d[5mC]*d[5mC]*dT*eG*e[5mC]*eA*e[5mC]*e[5mC]; antisense) [compound 347972]	98.6	–
347973 (eG*eG*e[5mC]*eA*eG*d[5mC]*dA*d[5mC]*dA*dA*dT*dA*dT*dG*dG*e[5mC]*e[5mC]*eT*eG*e[5mC]) [compound 347973]	143.3	–
ISIS 328744: SEQ ID NO: 653, targeting mir-182 (e[5mC]*eG*eG*eA*eT*d[5mC]*d[5mC]*dT*dG*dT*dT*dA*d[5mC]*d[5mC]*dT*e[5mC]*eA*e[5mC]*e[5mC]*eA)	–	phase of the cell cycle in which cells arrest or delay (HeLa cells): increase in the percentage of cells in the G2/M-phase of the cell cycle as well as in the subG1 category; effect on cell cycling (T47Dp53 cells): not affected; effect on cell cycling (BJ cells): not affected

Source: patent publication US8178506B2, “Oligomeric compounds and compositions for use in modulation of small non-coding RNAs” (Regulus Therapeutics Inc., priority 2003, dated 2012)
